Reference: PMC11878344 (Angewandte Chemie (International Ed. in English), 2025)
Where two headings read alike, the source gives them in different places.

What was measured:
human MAGL = biological target: T1, human MAGL (Homo sapiens, UniProt Q99685); assay: In vitro MAGL inhibition assay (2-AG hydrolysis followed by mass spectrometry); type: biochemical
T1 sequence (Q99685 1-303): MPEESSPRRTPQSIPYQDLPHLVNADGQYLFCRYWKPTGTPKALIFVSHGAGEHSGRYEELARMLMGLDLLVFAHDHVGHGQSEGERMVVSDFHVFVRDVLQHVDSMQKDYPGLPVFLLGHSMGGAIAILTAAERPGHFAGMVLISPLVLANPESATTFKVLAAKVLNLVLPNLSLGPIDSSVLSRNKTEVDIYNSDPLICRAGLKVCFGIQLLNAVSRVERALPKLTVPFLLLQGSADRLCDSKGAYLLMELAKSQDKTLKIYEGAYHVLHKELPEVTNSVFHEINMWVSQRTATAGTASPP
Protocol: (§1) 4. Experimental Details of Biochemical Assays and Crystal Structure
(§2) In Vitro MAGL Inhibition Assay
(§3) Compounds were profiled for MAGL inhibitory activity by determining the enzymatic activity by following the hydrolysis of the natural substrate 2-arachidonoylglycerol (2-AG), resulting in arachidonic acid, which can be followed by mass spectrometry. The 2-AG assay was carried out in 384 well assay plates (PP, Greiner Cat# 784201) in a total volume of 20 µL. Compound dilutions were made in 100% DMSO (VWR Chemicals 23500.297) in a polypropylene plate in 3-fold dilution steps to give a final concentration range in the assay from 12.5 µM to 0.8 pM. 0.25µL compound dilutions (100% DMSO) were added to 9 µL MAGL in assay buffer (50 mM TRIS (GIBCO, 15567-027), 1 mM EDTA (Fluka, 03690-100 mL), 0.01% (v/v) Tween. After shaking, the plate was incubated for 15 min at RT. To start the reaction, 10 µL 2-arachidonoylglycerol in assay buffer was added. The final concentrations in the assay were 50 pM MAGL and 8 µM 2-arachidonoylglyerol. After shaking and 30 min incubation at RT, the reaction was quenched by the addition of 40µL of ACN containing 4 µM of d8-arachidonic acid. The amount of arachidonic acid was traced by an online SPE system (Agilent Rapidfire) coupled to a triple quadrupole mass spectrometer (Agilent 6460). A C18 SPE cartridge (G9205A) was used in an ACN/water liquid setup. The mass spectrometer was operated in negative electrospray mode following the mass transitions 303.1 → 259.1 for arachidonic acid and 311.1 → 267.0 for d8-arachidonic acid. The activity of the compounds was calculated based on the ratio of intensities [arachidonic acid / d8- […]
(§4) This assay was performed as first described before.[39] […]

mouse MAGL = biological target: T2, mouse MAGL (Mus musculus, UniProt O35678); assay: as above; type: biochemical
T2 sequence (O35678 1-303): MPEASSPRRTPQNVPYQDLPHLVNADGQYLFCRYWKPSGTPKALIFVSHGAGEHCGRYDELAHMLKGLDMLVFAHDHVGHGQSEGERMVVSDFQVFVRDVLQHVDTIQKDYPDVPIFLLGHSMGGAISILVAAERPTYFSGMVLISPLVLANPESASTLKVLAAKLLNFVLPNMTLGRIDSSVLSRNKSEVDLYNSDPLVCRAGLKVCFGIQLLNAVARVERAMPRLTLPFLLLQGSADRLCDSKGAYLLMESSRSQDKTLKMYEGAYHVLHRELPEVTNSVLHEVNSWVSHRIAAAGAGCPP
Protocol: as §1, §2, §3, §4

[1] = biological target: T3, NanoLuc luciferase MAGL fusion protein in HEK293A cells (Homo sapiens, UniProt Q99685); assay: Cellular MAGL NanoBRET target engagement assay; type: cell-based; conditions: Table 2; mean of three independent measurements ± SD; read-out: HEK 293 nanoBRET IC50±SD
T3 construct: expressed in transfected cells
T3 sequence (Q99685 1-303): T1 sequence (Q99685 1-303)
Protocol: We, therefore, confirmed cellular MAGL target engagement in a nanoBRET assay using live HEK293 cells.[39] […] To overcome the low cellular potency of 4, we exploited the modular construction principle to modulate unfavorable physicochemical properties and investigated less polar, privileged head groups[23, 33, 40] (Supporting Information Table S4). […]
This assay was performed as first described before.[39]
Compounds were profiled by a novel cellular MAGL NanoBRET™ Target Engagement assay, which measures the apparent affinity of test compounds by competitive displacement of a Roche-developed Tracer (WO2021058443, Example 21)[21], reversibly bound to a NanoLuc® luciferase MAGL fusion protein in cells.
A HEK293A stable cell line expressing NanoLuc_MAGL was established at Roche and assigned as HEK293A_NanoLuc_MAGL clone #43. A fixed concentration of tracer is added to cells expressing the NanoLuc®_MAGL fusion protein to generate a BRET reporter complex. The introduction of competing compounds results in a dose-dependent decrease in NanoBRET™ energy transfer, which allows quantification of the intracellular affinity of the target protein for the […]
HEK293A_NanoLuc_MAGL clone #43 cells were cultured in DMEM (Gibco 31966) with 10% FBS and 800 ug/ml G418. The NanoBRET assay was performed by seeding 5000 cells/well in Costar low-volume white 384-well plate in assay buffer (1% FBS in HBSS), followed by adding 50 nM final concentration of tracer and serial dilutions of test compounds. After 2 hours of incubation, Nanoluciferase substrates and extracellular inhibitors were added following the manufacturer's protocol (Promega, #N2520), and the NanoBRET signaling were quantified with the Paradigm

[2] = Fluorescence excitation/absorption and emission maxima; type: physicochemical; conditions: PBS pH 7.4
Text: Figure S8. Fluorescence excitation and emission spectra of the utilized fluorescent reporters in PBS pH 7.4. Spectra l differences between probes carrying the same fluorophore were […]
Table S6. Fluorescence excitation, emission maxima, and Stokes-shift in PBS pH 7.4 for the used fluorophores, respectively. difference s between probes with the same fluorophore were […]
λmax Excitation [nm] λmax Emission [nm] Stokes-shift [nm]
(1 picture or pasted object on this page, not shown here)

[3] = Table 2, mean of three independent measurements ± SD, read-out: hMAGL IC50±SD
[4] = Table 2, mean of three independent measurements ± SD, read-out: mMAGL IC50±SD

SMILES: CN(C)c1ccc2c(c1)[Si](C)(C)c1cc(N(C)C)ccc1C21OC(=O)c2ccc(C(=O)NCCCCCOc3ccccc3CC3CC4(C3)CN(C(=O)N3CC5(COC(=O)N5)C3)C4)cc21 (stereo not drawn) [Compound 10]
- IC50 (human MAGL; Supporting Information Tables S1-S5, read-out: IC50 hMAGL): 0.187 nM
- IC50 (human MAGL; [3]): 0.15 ± 0.11 nM
- IC50 (mouse MAGL; Supporting Information Tables S1-S5, read-out: IC50 mMAGL): 0.155 nM
- IC50 (mouse MAGL; [4]): 0.16 ± 0.09 nM
- IC50 [1]: 285 ± 240 nM
- λmax Em (fluorescence emission maximum) [2]: 673 nm
- λmax Ex (fluorescence excitation maximum) [2]: 654 nm

SMILES: CN(C)c1ccc2c(c1)[Si](C)(C)c1cc(N(C)C)ccc1C21OC(=O)c2ccc(C(=O)NCCCCCOc3ccccc3CC3CC4(C3)CN(C(=O)OC(C(F)(F)F)C(F)(F)F)C4)cc21 (stereo not drawn) [Compound 12]
- IC50 (human MAGL; [3]): 1.15 ± 0.29 nM
- IC50 (mouse MAGL; [4]): 1.35 ± 0.3 nM
- IC50 [1]: > 1000 nM
- λmax Em (fluorescence emission maximum) [2]: 673 nm
- λmax Ex (fluorescence excitation maximum) [2]: 654 nm
